Patent publication US20200276107A1, “Treatment of herpes simplex symptoms on skin and mucous membrane of mammals” (priority 2017, published 2020)

Tested on: herpes simplex labialis
Experiment: In vivo topical treatment, test group A (four individuals)
Set-up: species or system human
Conditions: common topical medication 5 to 6 times per day
Protocol: Antiviral performance of the composition of the present invention was evaluated in vivo. The test group A consisted of four individuals suffering from herpes simplex labialis. […] As infections were untreated, the individuals were normally healing in between 7 to 10 days. The time from initiation of the symptoms to when the patients experienced relief of pain from the affected area was between 5 to 7 days. […] The time from initiation of the symptoms to time when the patients experienced relief of pain from the affected area was 3 to 5 days.
The herpes infections of test group were treated topically with a composition containing the polyamine polymer silver complex of the present invention with the following results. The composition was applied topically to the affected areas to cover the cold sores with a coating of the composition two times a day. The time from initiation of the cold sores and treatment with the composition to complete healing averaged between about 2 to 3 days. The time from the initiation of the treatment to when the patients experienced relief of pain from the affected area was about 10 to 15 minutes after the first application.

Structure (SMILES): Nc1nc2c(ncn2COCCO)c(=O)[nH]1 [acyclovir]
- time from initiation of the symptoms to relief of pain from the affected area: 3 to 5 days
- time to healing: 5 to 7 days
